Target: T1, Recombinant human His-tagged Trim24-PHD-bromodomain (Homo sapiens, UniProt O15164)
T1 construct: Recombinant human His-tagged Trim24-PHD-bromodomain (produced in-house); made in house
T1 sequence (O15164 824-1006 limits assumed): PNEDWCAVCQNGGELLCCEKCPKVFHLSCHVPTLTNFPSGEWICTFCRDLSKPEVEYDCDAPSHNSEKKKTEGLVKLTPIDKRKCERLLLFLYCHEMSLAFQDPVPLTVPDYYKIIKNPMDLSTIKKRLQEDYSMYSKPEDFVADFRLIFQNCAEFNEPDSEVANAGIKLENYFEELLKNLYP
Assay: Trim24 AlphaScreen Assay
Assay type: binding
Conditions: 5 nM Trim24 protein, 15 nM biotinylated H3K23ac (1-33aa) peptide
Description: Recombinant human His-tagged Trim24-PHD-bromodomain (produced in-house), biotinylated H3K23ac (1-33aa) peptide (AnaSpec, Inc.), and test compound were added to a 384-well OptiPlate (Perkin Elmer) and incubated at room temperature for one hour. The assay buffer consisted of 50 mM Hepes, pH 7.5, 100 mM NaCl, and 0.12 mM Triton X-100.
Streptavidin donor beads and nickel chelate acceptor beads, both from a Perkin Elmer AlphaScreen Histidine Detection Kit, were then added to the Optiplate to a final concentration of 10 ug/mL each. Following a 2 hour incubation at room temperature, the microplate was read on an Envision Plate Reader (Perkin Elmer). Percent of control (POC) values were calculated from the following formula:
POC=[sample signal-average background signal]/[average maximum signal−average background signal]*100
The average maximum signal was obtained from wells containing all assay components except test compound. The average background signal pertained to wells with all assay components except Trim24 and test compound. IC50 values were calculated using a four-parameter logistic curve fit.

IC50 | Compound
> 1 µM | Cn1c(=O)n(C)c2cc(Oc3cccc(OCc4ccccc4)c3)c(NS(=O)(=O)C3CC3)cc21 [Example 12, N-(6-(3-(benzyloxy)phenoxy)-1,3-dimethyl-2-oxo-2,3-dihydro-1H-benzo[d]imidazol-5-yl)cyclopropanesulfonamide]
> 1 µM | Cn1c(=O)n(C)c2cc(Oc3cccc(OCc4ccccc4)c3)c(NS(=O)(=O)c3ccccc3)cc21 [Example 13, N-(6-(3-(benzyloxy)phenoxy)-1,3-dimethyl-2-oxo-2,3-dihydro-1H-benzo[d]imidazol-5-yl)benzenesulfonamide]
0.1 to 1 µM | Cn1c(=O)n(C)c2cc(Oc3cccc(OCc4ccccc4)c3)c(NS(=O)(=O)c3cccnc3)cc21 [Example 14, N-(6-(3-(benzyloxy)phenoxy)-1,3-dimethyl-2-oxo-2,3-dihydro-1H-benzo[d]imidazol-5-yl)pyridine-3-sulfonamide]
> 1 µM | Cn1c(=O)n(C)c2cc(Oc3cccc(OCc4ccccc4)c3)c(NS(=O)(=O)c3ccc(F)cc3)cc21 [Example 15]

The remaining lines, values behind:

Compound | IC50
COc1ccc(S(=O)(=O)Nc2cc3c(cc2Oc2cccc(OCc4ccccc4)c2)n(C)c(=O)n3C)cc1OC [Example 1, N-(6-(3-(benzyloxy)phenoxy)-1,3-dimethyl-2-oxo-2,3-dihydro-1H-benzo[d]imidazol-5-yl)-3,4-dimethoxybenzenesulfonamide] | 0.1 to 1 µM
Cc1n[nH]c(C)c1S(=O)(=O)Nc1cc2c(cc1Oc1cccc(OCc3ccccc3)c1)n(C)c(=O)n2C [Example 2, N-(6-(3-(benzyloxy)phenoxy)-1,3-dimethyl-2-oxo-2,3-dihydro-1H-benzo[d]imidazol-5-yl)-3,5-dimethyl-1H-pyrazole-4-sulfonamide] | 0.1 to 1 µM
Cn1cnc(S(=O)(=O)Nc2cc3c(cc2Oc2cccc(OCc4ccc(Cl)nc4)c2)n(C)c(=O)n3C)c1 [Example 3, N-(6-(3-((6-chloropyridin-3-yl)methoxy)phenoxy)-1,3-dimethyl-2-oxo-2,3-dihydro-1H-benzo[d]imidazol-5-yl)-1-methyl-1H-imidazole-4-sulfonamide] | > 1 µM
Cc1nc(S(=O)(=O)Nc2cc3c(cc2Oc2cccc(OCCC(C)C)c2)n(C)c(=O)n3C)cn1C [Example 4, N-(6-(3-(isopentyloxy)phenoxy)-1,3-dimethyl-2-oxo-2,3-dihydro-1H-benzo[d]imidazol-5-yl)-1,2-dimethyl-1H-imidazole-4-sulfonamide] | 0.1 to 1 µM
Cn1cnc(S(=O)(=O)Nc2cc3c(cc2Oc2cccc(OCCCCN)c2)n(C)c(=O)n3C)c1 [Example 5, N-(6-(3-(4-aminobutoxy)phenoxy)-1,3-dimethyl-2-oxo-2,3-dihydro-1H-benzo[d]imidazol-5-yl)-1-methyl-1H-imidazole-4-sulfonamide] | 0.1 to 1 µM
CCOc1cccc(Oc2cc3c(cc2NS(=O)(=O)c2cn(C)c(C)n2)n(C)c(=O)n3C)c1 [Example 6, N-(6-(3-ethoxyphenoxy)-1,3-dimethyl-2-oxo-2,3-dihydro-1H-benzo[d]imidazol-5-yl)-1,2-dimethyl-1H-imidazole-4-sulfonamide] | 0.1 to 1 µM
CCCOc1cc(OCCCCCCN)cc(Oc2cc3c(cc2NS(=O)(=O)c2ccc(OC)c(OC)c2)n(C)c(=O)n3C)c1 [Example 7, N-(6-{3-[(6-aminohexyl)oxy]-5-propoxyphenoxy}-1,3-dimethyl-2-oxo-2,3-dihydro-1H-1,3-benzodiazol-5-yl)-3,4-dimethoxybenzene-1-sulfonamide] | 0.01 to 0.1 µM
CN(C)CCCCOc1cccc(Oc2cc3c(cc2NS(=O)(=O)c2cn(C)cn2)n(C)c(=O)n3C)c1 [Example 9, N-(6-(3-(4-(dimethylamino)butoxy)phenoxy)-1,3-dimethyl-2-oxo-2,3-dihydro-1H-benzo[d]imidazol-5-yl)-1-methyl-1H-imidazole-4-sulfonamide 2,2,2-trifluoroacetate] | > 1 µM
Cn1c(=O)n(C)c2cc(Oc3cccc(OCc4ccccc4)c3)c(NS(C)(=O)=O)cc21 [Example 11] | > 1 µM
